From patent US12545685B2 (Daiichi Sankyo Company, Limited, priority 2011, dated 2026)
Counter-ions that a name gives are not always drawn.

Tests used:
[1] = target: T1, Mdm2/p53 binding (GST-Mdm2 / His-p53) (Homo sapiens, UniProt Q00987, L33E); experiment: Mdm2/p53 binding assay (HTRF, His-p53 and GST-Mdm2); settings: His-p53 (aa 1-132) and GST-Mdm2 (aa 25-108, L33E) 6.25 nM each; 25°C, 1 hour; values given as ranges
T1 construct: Mdm2 partial protein having Mdm2 amino acids at positions 25 to 108
Outline: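 His-p53 (aa 1–132) and GST-Mdm2 (aa 25–108, L33E) were prepared at 6.25 nM each in the protein dilution (20 mM HEPES pH 7.4, 150 mM NaCl, 0.1% BSA). Compound in 10% DMSO buffer and XL665 anti-His/Eu anti-GST antibodies (KF buffer) were added, with 1 h at 25 °C. The 665/620 nm TR-FRET ratio gave T/C and a sigmoid-fitted IC50.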

[2] = test system: human lung cancer-derived cell line NCI-H460 having wild-type p53; experiment: Cell growth inhibition assay (MTT); assay type: cell-based; settings: 72 h, NCI-H460 cells, 3 days culture, values given as ranges, read-out: 50% growth inhibition concentration (GI50 value)
Description: A cell growth inhibition assay was conducted using a human lung cancer-derived cell line NCI-H460 having wild-type p53.
NCI-H460 cells were suspended in a medium (RPMI1640 medium containing 10% fetal bovine serum) and the suspension was added in an amount of 500 cells/150 μl/well to a 96-well plate. A test compound was dissolved in DMSO and this solution was diluted with medium to prepare a sample solution (DMSO concentration: 1% or lower). On the next day, medium nonsupplemented with the test compound, or the sample solution, was added in an amount of 50 μl/well. Cells were then cultured at 37° ° C. for 3 days in a 5% CO2 atmosphere.
An MTT assay was conducted immediately after the nonsupplemented medium or the sample solution was added. Another MTT assay was conducted after culturing the cells for 3 days. The MIT assays were conducted as shown below.
A 5 mg/ml MTT (3-(4,5-dimethylthiazol-2-yl)-2,5-diphenyltetrazolium bromide, Sigma-Aldrich Co., M-2128) solution was prepared using a phosphate buffer solution (Dulbecco's Phosphate-buffered Saline). This MIT solution was added in an amount of 20 μl/well. Then the plate was cultured at 37° ° C. for 4 hours in a 5% CO2 atmosphere. The plate was centrifuged at 1200 rpm for 5 minutes and then the culture supernatant was removed by aspiration using a dispenser. DMSO was added in an amount of 150 μl/well to dissolve generated formazan. The plate was stirred using a plate mixer for uniform color development from each well. The absorbance of each well was measured at OD 540 nm and at a reference OD (660 nm) using a plate reader (SpectraMax PLUS384, Molecular Devices, CA, USA).
The OD value measured on the day of adding the sample solution was defined as S. The OD value measured three days after addition of the sample solution was defined as T. The OD value measured three days after addition of the DMSO dilution was defined as C. T/C (%) was determined at each concentration according to the formula shown below in order to prepare a dose response curve, from which 50% growth inhibition concentration (GI50 value) was calculated.

T1 sequence (Q00987 25-108 L33E): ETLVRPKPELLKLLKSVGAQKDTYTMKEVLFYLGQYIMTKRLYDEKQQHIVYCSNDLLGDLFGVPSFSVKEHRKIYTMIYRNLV

Row | SMILES | IC50 [1] | GI50 [2]
1 | CC1(C)CCC2(CC1)N[C@@H](C(=O)N[C@H]1CC[C@H](O)CC1)[C@H](c1cccc(Cl)c1F)[C@]21C(=O)Nc2cc(Cl)ccc21 (relative stereo) [Example 1, (3′R, 4′S,5′R)-6″-chloro-4′-(3-chloro-2-fluorophenyl)-N-(trans-4-hydroxycyclohexyl)-4,4-dimethyl-2″-oxo-1″,2″-dihydrodispiro[cyclohexane-1,2′-pyrrolidine-3′,3″-indole]-5′-carboxamide] | 50 to 100 nM | 100 to 500 nM
2 | CC1(C)CCC2(CC1)N[C@@H](C(=O)N[C@H]1CC[C@H](CO)CC1)[C@H](c1cccc(Cl)c1F)[C@]21C(=O)Nc2nc(Cl)ccc21 (relative stereo) [Example 2, (3′R, 4′S,5′R)-6″-chloro-4′-(3-chloro-2-fluorophenyl)-N-[trans-4-(hydroxymethyl)cyclohexyl]-4,4-dimethyl-2″-oxo-1″,2″-dihydrodispiro[cyclohexane-1,2′-pyrrolidine-3′,3″-pyrrolo[2,3-b]pyridine]-5′-carboxamide] | 50 to 100 nM | 1000 to 5000 nM
3 | CC1(C)CCC2(CC1)N[C@@H](C(=O)N[C@@H]1CC[C@@H](C(O)CO)OC1)[C@H](c1ccnc(Cl)c1F)[C@]21C(=O)Nc2cc(Cl)ccc21 (single isomer, unassigned) [Example 90] | – | 100 to 500 nM
4 | CC1(C)CCC2(CC1)N[C@@H](C(=O)N[C@@H]1CC[C@@H](C(N)=O)OC1)[C@H](c1ccnc(Cl)c1F)[C@]21C(=O)Nc2cc(Cl)ccc21 [Example 70, (3′R, 4′S,5′R)—N-[(3R,6S)-6-carbamoyltetrahydro-2H-pyran-3-yl]-6″-chloro-4′-(2-chloro-3-fluoropyridin-4-yl)-4,4-dimethyl-2″-oxo-1″,2″-dihydrodispiro[cyclohexane-1,2′-pyrrolidine-3′,3″-indole]-5′-carboxamide] | – | < 100 nM
5 | O=C(N[C@@H]1CC[C@@H](CO)OC1)[C@@H]1NC2(CC(CF)(CF)C2)[C@@]2(C(=O)Nc3cc(Cl)ccc32)[C@H]1c1cccc(Cl)c1 [Example 175, (3′R, 4′R, 5′R)-6″-chloro-4′-(3-chlorophenyl)-3,3-bis(fluoromethyl)-N-[(3R,6S)-6-(hydroxymethyl)tetrahydro-2H-pyran-3-yl]-2″-oxo-1″,2″-dihydrodispiro[cyclobutane-1,2′-pyrrolidine-3′,3″-indole]-5′-carboxamide] | 50 to 100 nM | –
6 | O=C(N[C@@H]1CC[C@@H](CO)OC1)[C@@H]1NC2(CC(CF)(CF)C2)[C@@]2(C(=O)Nc3cc(Cl)ccc32)[C@H]1c1cc(F)cc(Cl)c1F [Example 176, (3′R, 4′S,5′R)-6″-chloro-4′-(3-chloro-2,5-difluorophenyl)-3,3-bis(fluoromethyl)-N-[(3R,6S)-6-(hydroxymethyl)tetrahydro-2H-pyran-3-yl]-2″-oxo-1″,2″-dihydrodispiro[cyclobutane-1,2′-pyrrolidine-3′,3″-indole]-5′-carboxamide] | 1 to 50 nM | –
7 | CC1(C)CCC2(CC1)N[C@@H](C(=O)N[C@@H]1CC[C@@H](C(N)=O)OC1)[C@H](c1cccc(Cl)c1F)[C@]21C(=O)Nc2cc(Cl)ccc21 [Example 181, (3′R, 4′S,5′R)-N-[(3R, 6S)-6-carbamoyltetrahydro-2H-pyran-3-yl]-6″-chloro-4′-(3-chloro-2-fluorophenyl)-4,4-dimethyl-2″-oxo-1″,2″-dihydrodispiro[cyclohexane-1,2′-pyrrolidine-3′,3′-indole]-5′-carboxamide] | 1 to 50 nM | –
8 | C[C@@H](O)[C@@H]1CC[C@@H](NC(=O)[C@@H]2NC3(CCC(C)(C)CC3)[C@@]3(C(=O)Nc4cc(Cl)ncc43)[C@H]2c2ccnc(Cl)c2F)CO1 [Example 192, 6″-Chloro-4′-(2-chloro-3-fluoropyridin-4-yl)-N-{(3R,6S)-6-[(1R)-1-hydroxyethyl]tetrahydro-2H-pyran-3-yl}-4,4-dimethyl-2″-oxo-1″,2″-dihydrodispiro[cyclohexane-1,2′-pyrrolidine-3′,3″-pyrrolo[3,2-c]pyridine]-5′-carboxamide] | 1 to 50 nM | –
9 | CC1(C)CCC2(CC1)N[C@@H](C(=O)N[C@@H]1CC[C@@H](C(N)=O)OC1)[C@H](c1ccnc(Cl)c1F)[C@]21C(=O)Nc2cc(Cl)ccc21 [Example 193, (3′R, 4′S, S′R)—N-[(3R,6S)-6-carbamoyltetrahydro-2H-pyran-3-yl]-6″-chloro-4′-(2-chloro-3-fluoropyridin-4-yl)-4,4-dimethyl-2″-oxo-1″,2″-dihydrodispiro[cyclohexane-1,2′-pyrrolidine-3′,3″-indole]-5′-carboxamide hydrochloride water/2-propanol (IPA) solvate] | 1 to 50 nM | –

Now from value to compound:

Row | IC50 [1] | GI50 [2] | SMILES
10 | 100 to 500 nM | 1000 to 5000 nM | O=C(N[C@H]1CC[C@H](O)CC1)[C@@H]1NC2(CCCCC2)[C@@]2(C(=O)Nc3cc(Cl)ccc32)[C@H]1c1cccc(Cl)c1F (relative stereo) [Example 4, (3′R, 4′S,5′R)-6″-chloro-4′-(3-chloro-2-fluorophenyl)-N-(trans-4-hydroxycyclohexyl)-2″-oxo-1″,2″-dihydrodispiro[cyclohexane-1,2′-pyrrolidine-3′,3″-indole]-5′-carboxamide]
11 | 50 to 100 nM | 1000 to 5000 nM | CC1(C)CCC2(CC1)N[C@@H](C(=O)N[C@H]1CC[C@H](c3nnco3)CC1)[C@H](c1cccc(Cl)c1F)[C@]21C(=O)Nc2nc(Cl)ccc21 (relative stereo) [Example 5, (3′R, 4′S,5′R)-6″-chloro-4′-(3-chloro-2-fluorophenyl)-4,4-dimethyl-N-[trans-4-(1,3,4-oxadiazol-2-yl)cyclohexyl]-2″-oxo-1″,2″-dihydrodispiro[cyclohexane-1,2′-pyrrolidine-3′,3″-pyrrolo[2,3-b]pyridine]-5′-carboxamide]
12 | 1 to 50 nM | – | CC1(C)CCC2(CC1)N[C@@H](C(=O)NC1CCN(c3nnn[nH]3)CC1)[C@H](c1ccnc(Cl)c1F)[C@]21C(=O)Nc2cc(Cl)ccc21 [Example 178, (3′R, 4′S,5′8)-6″-chloro-4′-(2-chloro-3-fluoropyridin-4-yl)-4,4-dimethyl-2″-oxo-N-[1-(1H-tetrazol-5-yl)piperidin-4-yl]-1″,2″-dihydrodispiro[cyclohexane-1,2′-pyrrolidine-3′,3″-indole]-5′-carboxamide]
13 | 1 to 50 nM | – | CC1(C)CCC2(CC1)N[C@@H](C(=O)N[C@@H]1CCC(C)(C(N)=O)OC1)[C@H](c1ccnc(Cl)c1F)[C@]21C(=O)Nc2cc(Cl)ccc21 (stereo partly drawn) [Example 187, (3′R, 4′S,5′R)—N-[(3R)-6-carbamoyl-6-methyltetrahydro-2H-pyran-3-yl]-6″-chloro-4′-(2-chloro-3-fluoropyridin-4-yl)-4,4-dimethyl-2″-oxo-1″,2″-dihydrodispiro[cyclohexane-1,2′-pyrrolidine-3′,3″-indole]-5′-carboxamide]
14 | 1 to 50 nM | – | CC1(C)CCC2(CC1)N[C@@H](C(=O)NC1(C)CC[C@@H](C(N)=O)OC1)[C@H](c1ccnc(Cl)c1F)[C@]21C(=O)Nc2cc(Cl)ccc21 (stereo partly drawn) [Example 189, (3′R, 4′S,5′R)—N-[(6S)-6-carbamoyl-3-methyltetrahydro-2H-pyran-3-yl]-6″-chloro-4′-(2-chloro-3-fluoropyridin-4-yl)-4,4-dimethyl-2″-oxo-1′1,2″-dihydrodispiro[cyclohexane-1,2′-pyrrolidine-3′,3″-indole]-5′-Carboxamide]
